Measurements from patent US20040192889A1, “Cytotoxic peptides and peptidomimetics based thereon, and methods for use thereof” (priority 2001, published 2004).
“Also recorded” adds a separate entry of the source. Residues, ends and D or L forms follow the SMILES beside them. No end group written: not given here. *: point of attachment. Cbz = O=C(OCc1ccccc1)*; CH2F = FC*

Tests used:
[1] = test system: N2a neuroblastoma cells; assay: Annexin V-FITC staining of transfected N2a cells; assay type: cell-based, mouse; settings: for relative risk (RR) of annexin V-FITC staining with expression / annexin V-positive among construct-positive cells: expression by transfection; for annexin V-positive among construct-positive cells: no tamoxifen or staurosporine, 24 h
Description: Mouse N2a neuroblastoma cells were grown at 37° C. and 5% CO2 in […] Dulbecco's modified Eagle's medium and 45% OptiMEM I (Life Technologies) supplemented with 10% fetal bovine serum and 2 mM glutamine. Plasmid constructs were introduced into the N2a cells with the LipofectAMINE plus transfection reagent (Life Technologies) according to the manufacturer's instructions.
N2a cells were plated on glass cover slips treated with polylysine and were transfected as described above. At 24 h after transfection, cells were directly stained with annexin V-FITC for apoptosis in tissue culture media, according to the manufacturer's instructions (annexin V-FITC Apoptosis Detection Kit; Calbiochem, La Jolla, Calif.). After being stained with annexin V-FITC, cells were fixed for 20 min in 4% parafoimaldehyde in phosphate-buffered saline and permeabilized in 0.5% Triton X-100 in phosphate-buffered saline for 5 min. After being blocked in 5% BSA in phosphate-buffered saline, the cells were incubated for 1 h at room temperature with CT15, diluted 1:2,000. In parallel, cells were stained with propidium iodide after annexin V staining and paraformaldehyde fixation but without permeabilization to verify membrane integrity; the combination of amnexin V staining and membrane integrity indicated apoptosis without secondary necrosis. The primary antibody was detected with Texas Red®-conjugated secondary antibody against rabbit (Molecular Probes, Eugene, Oreg.). Negative controls, which included preimmune serum and cells transfected with pcDNA3 (mock transfection), were assayed in parallel using the protocol described above. The cells were analyzed by confocal nmcroscopy using a BioRad MRC-1024 system. Cells in five random fields were counted for each slide, in duplicate for each condition. The number of cells positive and negative for APP or C31 and apoptosis (annexin V-FITC) were determined, and relative risk was calculated (RR=p1/p2)=concordant staining [(+/+) times (−/−)] divided by discordant staining [(+/−) times (−/+)].
Double-labeling of APP and annexin V in N2a cells after transfection was performed. N2a cells were transfected with either APP or C31 followed by staining with annexin V-FITC to visualize apoptotic cells. Transfected cells were immunolocalized with CT15 followed by Texas Red conjugated secondary antibody to visualize APP or C31 expression. When expressed in N2a cells, C31 but not APP is associated with apoptosis. A high proportion of C31 transfected cells are positive for amnexin V-FITC (green outline of the cell; RR=6.3), whereas in APP-expressing cells, annexin V-FITC staining is sparse (RR=0.77). In control cells transfected with pcDNA3 (mock transfection; control), there is no staining with annexin V-FITC and essentially no staining of endogenous APP at this antibody dilution. Images are representations of four different fields of view of each of three separate experiments.

[2] = test system: glial cells; assay: Toxicity of transduced peptides to glial cells in primary hippocampal cultures (GFAP immunostaining, quantitative image analysis); assay type: cell-based, rat
Description: (§1) Hippocampal or cortical neurons derived from 17-day old rat embryos were plated in modified minimum essential media (MEM-PAK) supplemented with 5% horse serum. Three days later, the cultures were treated with 10 μM cytosine arabinoside (AraC). Twenty-four h later the cells were treated with the peptide conjugates and incubated for an additional 24 or 48 h. Cells were incubated in the presence of 50 μM of the general caspase inhibitor BOC-Asp(Ome)-FMK (BAF) for 30 min prior to addition of peptides or with an equivalent volume of dimethylsulfoxide (DMSO) and then maintained in the presence of the same concentration of the inhibitor for the duration of the experiment. In all experiments involving Aβ, a 1 mM Aβ42 stock solution was used that had been incubated at 37° C. for 48 h and then stored at 4° C. to allow for the formation of Aβ fibrils. Aβ42 was purchased from AnaSpec (San Jose, Calif.).
(§2) Peptides were synthesized and purified at the Stanford University Protein and Nucleic Acid (PAN) Facility. All peptide stocks were solubilized in water at 1 or 10 mM concentration. […]
Hippocampal cultures were fixed in 4% paraformaldehyde in 1× phosphate-buffered saline (PBS) for 20 min at room temperature (RT). […] Images were acquired using Nikon Eclipse-800 microscope and Optronics MagnaFire camera and software, and analyzed using Compix Simple PCI software. The total surface area corresponding to red and green fluorescence in each confocal image was determined by image analysis using Simple PCI software (Compix, Inc., Philadelphia).
To investigate whether this was due to a greater sensitivity of neurons than glial cells to DP-APPC31-induced death, 3-day-old rat hippocampal cultures were exposed to increasing concentrations of DP-APPC31 or control DP peptide and fixed 48 h after transduction. […] A quantitative assessment of the total area of red and green fluorescence present in low-magnification confocal images of representative fields obtained from three independent experiments was performed using a digital image analysis system (SimplePCl, Compix, Inc, Philadelphia). […]

[3] = test system: hippocampal neurons; assay: Toxicity of transduced peptides to neurons in primary hippocampal cultures (NeuN immunostaining, quantitative image analysis); assay type: cell-based; settings: for NeuN-immunoreactive (neuronal) population: 10 μM peptide
Description: as §1
(§3) Peptides were synthesized and purified at the Stanford University Protein and Nucleic Acid (PAN) Facility. All peptide stocks were solubilized in water at 1 or 10 mM concentration. […] A control peptide used was a fusion of the human immunodeficiency virus-1 TAT protein (HIV-TAT) delivery peptide sequence (Hileman et al., FEBS Lett. 415:145-154 (1997) and the first helix of the p75 receptor intracellular domain.
Hippocampal cultures were fixed in 4% paraformaldehyde in 1× phosphate-buffered saline (PBS) for 20 min at room temperature (RT). Cells were then rinsed in 1× PBS and then washed once in 1× Tris-buffered saline (TBS) followed by blocking in 10% donkey serum (Jackson ImmunoResearch Labs, West Grove, Pa.) with 0.1% Triton X-100 in 1×TBS for 1 h at RT. Cultures were incubated overnight in the presence of rabbit anti-GFAP (Sigma, St. Louis) at 1:800 dilution and mouse anti-NeuN (Chemicon, Temecula, Calif.) at 1:100 at 4° C. Negative controls were incubated in 2 mg/ml rabbit and mouse preinimune IgGs (Sigma, St. Louis). All primary antibodies were diluted in 1×TBS containing 10% donkey serum. Cultures were washed for 90 min in 4 changes of 1×TBS and incubated in the presence of donkey anti-rabbit IgG conjugated to Cy3 and donkey anti-mouse IgG conjugated to FITC (Jackson ImmunoResearch Laboratories, Inc., West Grove, Pa.), at 1:250 and 1:400, respectively, in 1×TBS containing 1% donkey serum for 1 h at RT. Cells were washed for 90 min in 4 changes of 1×TBS and mounted in VectaShield-DAPI mounting medium (Vector Laboratories, Burlingame, Calif.). Images were acquired using Nikon Eclipse-800 microscope and Optronics MagnaFire camera and software, and analyzed using Compix Simple PCI software. The total surface area corresponding to red and green fluorescence in each confocal image was determined by image analysis using Simple PCI software (Compix, Inc., Philadelphia).
To investigate whether this was due to a greater sensitivity of neurons than glial cells to DP-APPC31-induced death, 3-day-old rat hippocampal cultures were exposed to increasing concentrations of DP-APPC31 or control DP peptide and fixed 48 h after transduction. The fixed cultures were then immunostained with antibodies specific for GFAP (red) and NeuN (green). A quantitative assessment of the total area of red and green fluorescence present in low-magnification confocal images of representative fields obtained from three independent experiments was performed using a digital image analysis system (SimplePCl, Compix, Inc, Philadelphia).
APLP1C31 induces death in primary hippocampal cultures. […] If this event occurs in vivo, APLP1 would have the potential to generate a pro-apoptotic C-terminal peptide homologous to APPC31. To deterinine whether the peptide generated by caspase cleavage of APLP1 is toxic, a fusion of APLP1C31 to the Antennapedia delivery peptide (DP-APLP1C31) was generated and assayed in protein transduction experiments. […]

[4] = test system: primary hippocampal cultures; assay: Viability of primary hippocampal cultures by trypan blue exclusion; assay type: cell-based, rat
Description: as §1, §2
(§4) Aβ exacerbates the sensitivity of hippocampal cultures to C31 toxicity. […] Thirty-six hours later, the cultures were evaluated by the LIVE/DEAD assay. […] Cells were stained with Hoechst 33342 and scored for nuclear condensation.

[5] = test system: 293T human embryonic kidney cells; assay: Toxicity of C31 peptide to 293T cells; assay type: cell-based
Description: as §3
(§5) Primary hippocampal or cortical neuronal culturesor 293 cells transduced with the different penetratin-peptide conjugates were assayed for viability at 24 and 48 h after transduction by trypan blue exclusion or by conversion of 3-[4,5-Dimethylthiazol-2-yl]-2,5-diphenyltetrazolium bromide; Thiazolyl blue (MTT, Sigma, St. Louis) to formazan by dehydrogenase enzymes (MTT, Sigma, St. Louis) and by the LIVE/DEAD assay (Molecular Probes, Eugene, Oreg.), which distinguishes live cells by the presence of intracellular esterase activity, which results in the conversion of the non-fluorescent cell permeant calcein-AM to the intensely green fluorescent calcein. Calcein is retained witlin live cells. Ethidium homodimer-1 (EthD-1) enters cells with damaged membranes and becomes intensely fluorescent when bonding to nucleic acids. EthD-1 is excluded by the intact plasma membrane of live cells. Media were removed and replaced by 4 μM EthD-1 and 2 μM calcein in PBS. […]

[6] = test system: PTB domain of Fe65; assay: Binding of C31 to the PTB domain of Fe65
Excerpt: Binding assays can be used to confirm this observation with respect to the C31 peptide derived from APLP1.

[7] = test system: primary hippocampal cultures; assay: Hoechst 33342 staining of condensed, fragmented (apoptotic) nuclei in primary hippocampal cultures; assay type: cell-based, rat; settings: for percentage of apoptotic nuclei (Hoechst 33342): cultures preincubated with 5 μM Aβ for 24 h, then exposed to C-C31 or not
Description: as §1, §5, §4

[8] = test system: primary hippocampal cultures; assay: Viability of primary hippocampal cultures by MTT assay; assay type: cell-based, rat; settings: increasing concentrations
Description: as §1
as §3, with “domain. […]” for “domain.”

[9] = test system: primary hippocampal cultures; assay: LIVE/DEAD assay (calcein / EthD-1) of primary hippocampal cultures; assay type: cell-based, rat; settings: for toxicity of Aβ alone: 36 hours
Description: as §1, §5, §4

[10] = synthetic peptide delivered into primary cultures

## CC(C)[C@H](NC(=O)OCc1ccccc1)C(=O)N[C@@H](C)C(=O)N[C@@H](CC(=O)O)C(=O)CF [zVAD.fmk, benzoxycarbonyl-Val-Ala-Asp-CH2F, reference compound] (Cbz-Val-Ala-Asp-CH2F)
[1]; zVAD.fmk treatment
  effect on annexin V staining of C31 transfected cells: decreased annexin V staining of C31 transfected cells to control levels

## APP: wild-type human APP695 expressed from pcDNA3 by transfection
[1]
  relative risk (RR) of annexin V-FITC staining with expression: 0.77
  annexin V-positive among construct-positive cells: 13±5%

## AAVTPEERHLSKMQQNGYENPTYKFFEQMQN [C31]
[2]; rat, astrocytes (glial cells in primary hippocampal cultures)
  CC50: 10 to 25 µM
[3]; primary culture, read-out: LC50 for hippocampal neurons
  CC50: 1 to 2 µM
[1]
  relative risk (RR) of annexin V-FITC staining with expression: 6.3
  annexin V-positive among construct-positive cells: 76±10%
[4]; preincubation with 5 μM Aβ for 24 h, then transduction in absence of Aβ, read-out: LC50 in primary cultures pre-exposed to sublethal fibrillar Aβ
  CC50: < 0.5 µM
[5]
  CC50: 50 to 100 µM
[6]
  binding to the PTB domain of Fe65: binds to the PTB domain of Fe65

## PMLTLEEQQLRELQRHGYENPTYRFLEERP [APLP1-C31]
[2]; [10]
  LD50 for glial cells: 35 to 40 µM
[3]; [10]
  LD50 for neurons: around 3 micromolar

## COC(=O)C[C@H](NC(=O)OC(C)(C)C)C(=O)CF [BAF, BOC-Asp(Ome)-FMK, reference compound]
[3]; BAF 50 μM
  effect of caspase inhibitor on DP-APLP1C31 toxicity: delayed DP-APLP1C31 toxicity
[3]; BAF 50 μM, DP-APPC31 10 μM
  effect of caspase inhibitor on DP-APPC31 toxicity: delayed the toxicity; also recorded: blocked the toxicity

## CC[C@H](C)[C@H](NC(=O)[C@H](CCCCN)NC(=O)[C@@H](NC(=O)[C@H](CCC(N)=O)NC(=O)[C@H](CCCNC(=N)N)NC(=O)[C@@H](N)CSSC[C@H](N)C(=O)N[C@@H](C)C(=O)N[C@@H](C)C(=O)N[C@H](C(=O)N[C@H](C(=O)N1CCC[C@H]1C(=O)N[C@@H](CCC(=O)O)C(=O)N[C@@H](CCC(=O)O)C(=O)N[C@@H](CCCNC(=N)N)C(=O)N[C@@H](Cc1c[nH]cn1)C(=O)N[C@@H](CC(C)C)C(=O)N[C@@H](CO)C(=O)N[C@@H](CCCCN)C(=O)N[C@@H](CCSC)C(=O)N[C@@H](CCC(N)=O)C(=O)N[C@@H](CCC(N)=O)C(=O)N[C@@H](CC(N)=O)C(=O)NCC(=O)N[C@@H](Cc1ccc(O)cc1)C(=O)N[C@@H](CCC(=O)O)C(=O)N[C@@H](CC(N)=O)C(=O)N1CCC[C@H]1C(=O)N[C@H](C(=O)N[C@@H](Cc1ccc(O)cc1)C(=O)N[C@@H](CCCCN)C(=O)N[C@@H](Cc1ccccc1)C(=O)N[C@@H](Cc1ccccc1)C(=O)N[C@@H](CCC(=O)O)C(=O)N[C@@H](CCC(N)=O)C(=O)N[C@@H](CCSC)C(=O)N[C@@H](CCC(N)=O)C(=O)N[C@@H](CC(N)=O)C(=O)O)[C@@H](C)O)[C@@H](C)O)C(C)C)[C@@H](C)CC)C(=O)N[C@@H](Cc1c[nH]c2ccccc12)C(=O)N[C@@H](Cc1ccccc1)C(=O)N[C@@H](CCC(N)=O)C(=O)N[C@@H](CC(N)=O)C(=O)N[C@@H](CCCNC(=N)N)C(=O)N[C@@H](CCCNC(=N)N)C(=O)N[C@@H](CCSC)C(=O)N[C@@H](CCCCN)C(=O)N[C@@H](Cc1c[nH]c2ccccc12)C(=O)N[C@@H](CCCCN)C(=O)N[C@@H](CCCCN)C(=O)O [DP-APPC31]
[7]
  percentage of apoptotic nuclei (Hoechst 33342): 72%
[7]; increasing concentrations, 30 hours after transduction
  percentage of condensed, fragmented nuclei, concentration dependence: increase in the percentage of condensed, fragmented nuclei
[8]
  number of viable cells converting MTT into formazan: reduced the number of viable cells
[2]; 10 μM peptide, 48 h after transduction
  glial (GFAP) population: significantly reduced
[3]
  NeuN-immunoreactive (neuronal) population: significantly reduced; also recorded: markedly reduced
[3]; listed as C-C31
  NeuN-immunoreactive (neuronal) population: marked decrease
[9]; 10 μM, 24 h after transduction
  viability of hippocampal neuronal cultures: marked decrease in viability

## Aβ: Aβ42 purchased from AnaSpec, stock incubated to allow formation of Aβ fibrils [reference compound]
[7]
  percentage of apoptotic nuclei (Hoechst 33342): ~9%
[4]; 5 μM Aβ
  dead cells with Aβ alone: did not increase the number of dead cells
[9]; 50 μM
  toxicity of Aβ alone: decrease the number of viable cells in the culture substantially
[9]; concentrations up to 25 μM
  toxicity of Aβ alone: No measurable toxicity
